The results in this text go back to ChEMBL document CHEMBL1125257, “Dihydropyrimidine calcium channel blockers. 3. 3-Carbamoyl-4-aryl-1,2,3,4-tetrahydro-6-methyl-5-pyrimidinecarboxylic acid esters as orally effective antihypertensive agents” (J Med Chem, 1991).

The assay has as its system Rattus norvegicus. Briefly: Antihypertensive activity when administered orally to spontaneously hypertensive rats. It counts as functional, organism-based.

The term IC50 denotes the concentration that gives 50% inhibition. Read a high IC50 as lower potency. In turn, `CCOC(=O)C1=C(COCCN)NC(C)=C(C(=O)OC)C1c1ccccc1Cl` (configuration not stated) [AMLODIPINE] showed an IC50 of 2.5 nM. Molecule `COC(=O)C1=C(C)NC(C)=C(C(=O)OC)C1c1ccccc1[N+](=O)[O-]` [NIFEDIPINE] had a concentration for half-maximal inhibition (IC50) of 2.5 nM.
